In patent US20230372382A1, “USE OF ADENOSINE DIPHOSPHATE RIBOSE FOR ADJUVANT THERAPY WITH RADIATION AND/OR ANTI-CANCER TREATMENT” (PearlsInMires Co., Ltd., priority 2021, published 2023):

Key:
Hep G2 cells = test: ADP-ribose quantitative analysis (ELISA) in cancer cells; type: cell-based; conditions: 8 μM ADP-ribose, 24 hours, P<0.001
Method: After culturing, the culture medium was removed, the cells were washed with phosphate-buffered saline, and then RIPA buffer was added and the cells were left on ice for 20 minutes. After scraping the cells, the cells were put in a centrifuge tube and centrifuged for 10 minutes at 10,000 g and 4° C. The supernatant was obtained, and 1% SDS was added, and then the reaction product was boiled at 100° C. for 5 minutes and cooled on ice. The supernatant was centrifuged again at 10,000 g and 4° C. for 10 minutes to obtain the final supernatant, and ADP-ribose was quantitatively analyzed and compared using an ELISA analysis kit (Cell Biolabs, Inc., San Diego, CA, USA).
5×10^5 Hep G2 cells were divided into the untreated group and 8 μM ADP-ribose-treated group and cultured in Eagle's Minimum Essential Medium supplemented with 10% fetal calf serum+100 units/ml penicillin+100 μg/ml streptomycin under conditions of 37° C. and 5% CO2 for 24 hours. The medium of the cultured cells was removed, and the supernatant prepared by treatment with RIPA buffer and 1% sodium dodecyl sulfate (SDS) was used for ELISA analysis to detect and analyze ADP-ribose.

AsPC-1 cells = test: Transwell metastasis and invasion ability of cancer cells; type: cell-based; conditions: AsPC-1, 16 μM ADP-ribose
Method: (§1) Metastasis and invasion ability of cancer cells were analyzed by using a transwell having polycarbonate membrane filters with 8.0 μm pore size. The transwell was put into a 24-well plate. In each well, pancreatic cancer (Aspc-1) and breast cancer (MDA-MB-231) cells were seeded on the upper surface of the insert at a density of 3.5×10^5 cells per well, divided into the untreated group and ADP-ribose-treated groups, and cultured under conditions of 37° C. and 5% CO2 for 24 hours. After culturing, the transwell was carefully washed with sterile water and then placed in 100% methanol to fix the attached cells. After fixation, the cells were stained with hematoxylin and an eosin reagent to observe the cells, and the ratio of cells that permeated the upper surface of the insert and metastasized and invaded the lower surface, compared to the untreated group, was obtained.
(§2) Analysis was performed using a transwell having polycarbonate membrane filters with 8.0 μm pore size. […] After culturing, the transwell was carefully washed with sterile water and then placed in 100% methanol to fix the attached cells. After fixation, the cells were stained with hematoxylin and an eosin reagent to observe the cells.

MDA-MB-231 cells = test: as above; type: cell-based; conditions: MDA-MB-231, 32 μM ADP-ribose
Method: as §1, §2

[1] = test system: Kidney cancer (Caki-1) cells; test: Xenograft model, intravenous ADP-ribose, tumor volume; type: in vivo, BALB/c nude mice; conditions: Caki-1 xenograft, 3 times a week, control about 2074.9
Method: Pancreatic cancer (AsPC-1) or kidney cancer (Caki-1) cells (1×10^7 cells) were inoculated into 5-week-old BALB/c nude mice on the back flank, and the mice were grown up to approximately 150 mm^3 of the tumor volume. Then, three concentrations of ADP-ribose were administered subcutaneously, intravenously, and orally 3 times a week. The tumor size was measured every 6 days using a digital caliper, and the changes in tumor volume were compared for each group.
Kidney cancer (Caki-1) cells (1×10^7) were inoculated into 5-week-old BALB/c nude mice on the back flank, and the mice were divided into 4 groups: the control group (Control) and groups injected intravenously with 2, 10, and 20 mg/kg of ADP-ribose. When the tumors were grown to a volume of approximately 150 mm^3, each concentration of ADP-ribose was […] injected 3 times a week. The tumor size was measured using a digital caliper, and the results of changes in tumor volume were compared by the group.

[2] = test system: Breast cancer (MDA-MB-231) cells; test: Cell death by combination treatment with anti-cancer drug (MTT); type: cell-based; conditions: Homo sapiens, MDA-MB-231, 24 h
Method: 3×10^3 Brain cancer (U-87MG), lung cancer (H1975), pancreatic cancer (Aspc-1), liver cancer (Hep G2), breast cancer (MDA-MB-231), and colon cancer (HCT116) cells were cultured in a 96-well plate for 24 hours under conditions of 37° C. and 5% Ca2, respectively. […] After the treatment was terminated, the cells were cultured for 24 hours under conditions of 37° C. and 5% CO2 again, 10 μl of 3-(4,5-dimethylthiazol-2-yl)-2,5-diphenyltetrazolium bromide reagent was added to each well and reacted for 1 hour. After the reaction was completed, the reagent was removed, 200 μl of dimethyl sulfoxide was added to each well, and the absorbance was measured to compare the degree of cell death.
Then, 10 μl of 3-(4,5-dimethylthiazol-2-yl)-2,5-diphenyltetrazolium bromide reagent was added to each well and reacted for 1 hour. After the reaction was completed, the reagent was removed, 200 μl of dimethyl sulfoxide was added to each well, and the absorbance was measured to confirm cell viability.

[3] = test system: Pancreatic cancer (AsPC-1) cells; conditions: AsPC-1 xenograft
Method: Brain (U-87MG), lung (H1975), pancreatic (AsPC-1), or liver (Hep G2) cells (1×10^7 cells) were inoculated into 5-week-old BALB/c nude mice on the back flank, respectively. Then, when tumors were grown to a volume of approximately 150 mm^3, the mice were divided into the control group (control), an anti-cancer drug alone treatment group, and a combination treatment group. […] The tumor size was measured every 6 days using a digital caliper, and the results of changes in tumor volume were compared by the group.
The tumor size was measured using a digital caliper, and the results of changes in tumor volume were compared by the group.

[4] = test system: human colon fibroblast (CCD-18Co); test: Toxicity in normal cells (MTT assay); type: cell-based; conditions: ADP-ribose 25, 50, 100 ul, 24, 48 and 72 hours
Method: (§3) As normal cells, human colon fibroblast (CCD-18Co) and human dermal papilla cell (HDPC) cells were used. […] Then, the cells were divided into a total of 4 groups: ADP-ribose untreated group (Untreated), and treated groups (treated with increased concentrations of 25, 50, 100 ul). Cell viability was compared by MTT assay after 24, 48, and 72 hours of drug treatment.

[5] = test system: human dermal papilla cell (HDPC); test: Toxicity in normal cells (MTT assay); type: cell-based; conditions: ADP-ribose 25, 50, 100 ul, 24, 48 and 72 hours
Method: as §3

[6] = ADP-ribose 10 mg/kg s.c. in combination with gemcitabine 50 mg/kg, P<0.001

Nc1ncnc2c1ncn2[C@@H]1O[C@H](COP(=O)(O)OP(=O)(O)OC[C@H]2O[C@@H](O)C(O)C2O)C(O)C1O (some centres unmarked) [ADP-ribose, adenosine diphosphate ribose]
amount of ADP-ribose in cells compared to the control group (Hep G2 cells): remarkably increased significantly
invasion and metastasis from upper to lower part of the transwell (photomicrograph) (AsPC-1 cells; 24 hours, FIG. 10A): significantly inhibited
metastasis and invasion ability, quantitatively measured, compared to the control group (AsPC-1 cells; P<0.001, FIG. 10B): significantly reduced
invasion and metastasis from upper to lower part of the transwell (photomicrograph) (MDA-MB-231 cells; 24 hours, FIG. 11A): significantly inhibited
metastasis and invasion ability, quantitatively measured, compared to the control group (MDA-MB-231 cells; P<0.001, FIG. 11B): significantly reduced
final tumor volume ([1]; 2 mg/kg intravenous): 706.7 mm^3
final tumor volume ([1]; 10 mg/kg intravenous): 331.7 mm^3
final tumor volume ([1]; 20 mg/kg intravenous): 227.2 mm^3
viability at 3.2 µM [2]: ~20%
reduction of tumor volume compared to the control group [3, 6]: about 80%
reduction of tumor volume compared to the group treated with gemcitabine alone [3, 6]: about 76%
final tumor volume ([3]; ADP-ribose 10 mg/kg subcutaneous 3 times a week in combination with gemcitabine 50 mg/kg, control about 2174.3): about 444.3 mm^3
toxicity to normal cells (cell viability, MTT assay) [4]: no toxicity was observed
toxicity to normal cells (cell viability, MTT assay) [5]: no toxicity was observed
